Source: the NIST ThermoML archive (doi:10.1016/j.jct.2016.03.026)

Assay: xn = mol fraction of the nth substance listed
Settings: 293.15 K, Fluid (supercritical or subcritical phases), Vibrating tube method, x1 = 0.97

O=C=O [carbon dioxide] + CO
Settings | mass density [kg/m3]
8600 kPa | 847.4
8625 kPa | 847.69
8650 kPa | 848.04
8675 kPa | 848.37
8700 kPa | 848.68
8725 kPa | 849.03
8750 kPa | 849.37
8775 kPa | 849.67
8800 kPa | 849.99
8825 kPa | 850.29
8850 kPa | 850.6
8875 kPa | 850.92
8900 kPa | 851.22
8925 kPa | 851.5
8950 kPa | 851.81
8975 kPa | 852.08
9000 kPa | 852.41
9025 kPa | 852.71
9050 kPa | 852.98
9075 kPa | 853.28
9100 kPa | 853.57
9125 kPa | 853.85
9150 kPa | 854.08
9175 kPa | 854.24
9200 kPa | 854.32
9225 kPa | 854.58
9250 kPa | 854.9
9275 kPa | 855.22
9300 kPa | 855.55
9325 kPa | 855.89
9350 kPa | 856.22
9375 kPa | 856.46
9400 kPa | 856.82
9425 kPa | 857.09
9450 kPa | 857.44
9475 kPa | 857.69
9500 kPa | 858.02
9525 kPa | 858.28
9550 kPa | 858.59
9575 kPa | 858.84
9600 kPa | 859.17
9625 kPa | 859.48
9650 kPa | 859.74
9675 kPa | 860.01
9700 kPa | 860.28
9725 kPa | 860.54
9750 kPa | 860.76
9775 kPa | 860.99
9800 kPa | 861.24
9825 kPa | 861.54
9850 kPa | 861.78
9875 kPa | 862
9900 kPa | 862.27
9925 kPa | 862.54
9950 kPa | 862.76
9975 kPa | 863.01
10000 kPa | 863.3
10025 kPa | 863.5
10050 kPa | 863.76
10075 kPa | 864
10100 kPa | 864.22
10125 kPa | 864.49
10150 kPa | 864.74
10175 kPa | 865.06
10200 kPa | 865.34
10225 kPa | 865.63
10250 kPa | 865.87
10275 kPa | 866.12
10300 kPa | 866.45
10325 kPa | 866.67
10350 kPa | 866.94
10375 kPa | 867.18
10400 kPa | 867.43
10425 kPa | 867.68
10450 kPa | 867.99
10475 kPa | 868.24
10500 kPa | 868.43
10525 kPa | 868.74
10550 kPa | 868.99
10575 kPa | 869.23
10600 kPa | 869.48
10625 kPa | 869.76
10650 kPa | 869.97
10675 kPa | 870.3
10700 kPa | 870.54
10725 kPa | 870.79
10750 kPa | 871.03
10775 kPa | 871.28
10800 kPa | 871.52
10825 kPa | 871.77
10850 kPa | 872.01
10875 kPa | 872.27
10900 kPa | 872.51
10925 kPa | 872.75
10950 kPa | 873
10975 kPa | 873.24
11000 kPa | 873.49
11025 kPa | 873.73
11050 kPa | 873.98
11075 kPa | 874.22
11100 kPa | 874.47
11125 kPa | 874.72
11150 kPa | 874.96
11175 kPa | 875.21
11200 kPa | 875.45
11225 kPa | 875.7
11250 kPa | 875.94
11275 kPa | 876.2
11300 kPa | 876.43
11325 kPa | 876.68
11350 kPa | 876.93
11375 kPa | 877.16
11400 kPa | 877.38
11425 kPa | 877.58
11450 kPa | 877.85
11475 kPa | 878.07
11500 kPa | 878.33
11525 kPa | 878.56
11550 kPa | 878.81
11575 kPa | 879
11600 kPa | 879.3
11625 kPa | 879.46
11650 kPa | 879.71
11675 kPa | 879.95
11700 kPa | 880.2
11725 kPa | 880.38
11750 kPa | 880.63
11775 kPa | 880.86
11800 kPa | 881.1
11825 kPa | 881.34
11850 kPa | 881.54
11875 kPa | 881.77
11900 kPa | 882
11925 kPa | 882.25
11950 kPa | 882.46
11975 kPa | 882.66
12000 kPa | 882.9
12025 kPa | 883.12
12050 kPa | 883.38
12075 kPa | 883.57
12100 kPa | 883.79
12125 kPa | 884.05
12150 kPa | 884.26
12175 kPa | 884.46
12200 kPa | 884.7
12225 kPa | 884.95
12250 kPa | 885.18
12275 kPa | 885.36
12300 kPa | 885.6
12325 kPa | 885.85
12350 kPa | 886.09
12375 kPa | 886.26
12400 kPa | 886.49
12425 kPa | 886.67
12450 kPa | 886.91
12475 kPa | 887.16
12500 kPa | 887.33
12525 kPa | 887.57
12550 kPa | 887.8
12575 kPa | 887.98
12600 kPa | 888.22
12625 kPa | 888.41
12650 kPa | 888.63
12675 kPa | 888.88
12700 kPa | 889.11
12725 kPa | 889.29
12750 kPa | 889.53
12775 kPa | 889.77
12800 kPa | 889.94
12825 kPa | 890.19
12850 kPa | 890.37
12875 kPa | 890.6
12900 kPa | 890.84
12925 kPa | 891.01
12950 kPa | 891.25
12975 kPa | 891.46
13000 kPa | 891.66
13025 kPa | 891.9
13050 kPa | 892.08
13075 kPa | 892.32
13100 kPa | 892.5
13125 kPa | 892.74
13150 kPa | 892.96
13175 kPa | 893.13
13200 kPa | 893.3
13225 kPa | 893.53
13250 kPa | 893.74
13275 kPa | 893.95
13300 kPa | 894.19
13325 kPa | 894.36
13350 kPa | 894.53
13375 kPa | 894.75
13400 kPa | 894.97
13425 kPa | 895.18
13450 kPa | 895.34
13475 kPa | 895.52
13500 kPa | 895.75
13525 kPa | 895.96
13550 kPa | 896.13
13575 kPa | 896.33
13600 kPa | 896.51
13625 kPa | 896.67
13650 kPa | 896.86
13675 kPa | 897.09
13700 kPa | 897.29
13725 kPa | 897.47
13750 kPa | 897.68
13775 kPa | 897.85
13800 kPa | 898.05
13825 kPa | 898.26
13850 kPa | 898.41
13875 kPa | 898.62
13900 kPa | 898.8
13925 kPa | 898.97
13950 kPa | 899.2
13975 kPa | 899.38
14000 kPa | 899.55
14025 kPa | 899.76
14050 kPa | 899.94
14075 kPa | 900.17
14100 kPa | 900.34
14125 kPa | 900.51
14150 kPa | 900.7
14175 kPa | 900.95
14200 kPa | 901.13
14225 kPa | 901.31
14250 kPa | 901.48
14275 kPa | 901.66
14300 kPa | 901.83
14325 kPa | 902.05
14350 kPa | 902.18
14375 kPa | 902.38
14400 kPa | 902.56
14425 kPa | 902.77
14450 kPa | 902.92
14475 kPa | 903.13
14500 kPa | 903.28
14525 kPa | 903.44
14550 kPa | 903.67
14575 kPa | 903.82
14600 kPa | 904.05
14625 kPa | 904.2
14650 kPa | 904.42
14675 kPa | 904.58
